# Measurements published in patent US20230220327A1, “SERPIN PRODUCTION” (SOCIETE DES PRODUITS NESTLE S.A., priority 2019, published 2023).
# “Also recorded” adds a separate entry of the source. No end group written: not given here.
# B1: Papain: papain (from Worthington), previously demonstrated to induce serpin in B. breve (protein, UniProt P00784 134-345, looked up)
# Papain: IPEYVDWRQKGAVTPVKNQGSCGSCWAFSAVVTIEGIIKIRTGNLNEYSEQELLDCDRRSYGCNGGYPWSALQLVAQYGIHYRNTYPYEGVQRYCRSREKGPYAAKTDGVRQVQPYNEGALLYSIANQPVSVVLEAAGKDFQLYRGGIFVGPCGNKVDHAVAAVGYGPNYILIKNSWGTGWGENGYIRIKRGTGNSYGVCGLYTSSFYPVKN
# Columns and labels:
# B. longum NCC 2705 = experiment: serpin protein levels (ELISA) in B. longum NCC 2705 grown on different carbohydrates; assay type: cell-based, Bifidobacterium longum subsp longum
# Method: B. longum strain CNCM 1-2618 (NCC 2705) was grown in Biolector (growth conditions—anaerobic, 37 00) in MRS+5 mM L-cysteine (MRSc) base without sugar, to which different carbohydrates were added.
# (§1) 48-well microtiter plate with pH sensor and dissolved oxygen (DO) sensor were used to culture the strains in Biolector (m2p-labs Aachen, Germany). It was continuously shaken to prevent bacteria aggregation for 8 h. Cultures were harvested by centrifugation and supernatant was removed. Pellet was resuspended in PBS supplemented with halt protease inhibitor (Sigma) and lysed using glassbeads. Lysate containing both soluble and insoluble material was then collected.
# (§2) Total protein content was measured using Pierce BCA kit (Thermofisher) and serpin protein concentration was determined using ELISA.
# B. longum NCC 2705 was cultured in Biolector (as described in Example 1) in a base of MRSc without sugar, with the addition of different glucose & galactose ratios, to a final concentration of 1%. Cultures were collected after 18 h of growth and analyzed for total & serpin protein levels (as described in Example 1).
# B. longum NCC 2705 was grown on an MRSc base without sugar, with addition of different commercially available galactooligosaccharides (GOS) at different concentrations. […] Obtained pellets were analyzed for total and serpin protein content (see Example 1). […]
# [1] = tested on: B. longum subsp. longum strains; experiment: serpin protein levels (ELISA) in B. longum subsp. longum strains; assay type: cell-based, Bifidobacterium longum subsp longum
# Method: as §1, §2
# The serpin encoding gene and its surrounding is highly conserved within the B. longum subsp. longum species. Strains of B. longum subsp. longum were selected to represent the entire span of the genetic phylogenetic tree (Table 2). […] Obtained pellets were further analyzed for total and serpin protein content (see example 1).
# Serpin is furthermore conserved within a restricted number of Bifidobacteria species (Turroni, F. et al. Characterization of the serpin-encoding gene of Bifidobacterium breve 210B. Appl Environ Microbiol 76, 3206-3219, doi:10.1128/AEM.02938-09 (2010)). […] Obtained pellets were further analyzed for total and serpin protein content (see example 1).
# B. breve ATCC 15700 (T) = experiment: serpin protein levels (ELISA) in B. breve; assay type: cell-based; settings: 18 h (FIG. 7)
# Method: as §1, §2
# (§3) Serpin is furthermore conserved within a restricted number of Bifidobacteria species (Turroni, F. et al. Characterization of the serpin-encoding gene of Bifidobacterium breve 210B. Appl Environ Microbiol 76, 3206-3219, doi:10.1128/AEM.02938-09 (2010)). Strains belonging to these species (Table 3) were cultured in Biolector (see example 1) in a MRSc base without sugar, to which 1% glucose, 1% galactose was added. […] Cultures were grown for 18 h and harvested. Obtained pellets were further analyzed for total and serpin protein content (see example 1).
# [2] = tested on: B. longum subsp. infantis ATCC 15697 (T); experiment: serpin protein levels (ELISA) in B. longum subsp infantis; assay type: cell-based; settings: 1% galactose, 18 h (FIG. 7)
# Method: as §1, §2, §3
# [3] = tested on: B. longum subsp. suis ATCC 27533 (T); experiment: serpin protein levels (ELISA) in B. longum subsp suis; assay type: cell-based; settings: 1% galactose, 18 h (FIG. 7)
# Method: as §1, §2, §3
# [4] = tested on: B. longum subsp. longum strains; experiment: growth of B. longum subsp. longum strains on galactose as sole carbohydrate source; assay type: cell-based, Bifidobacterium longum subsp longum; settings: 1% galactose, MRSc base without sugar
# Method: The serpin encoding gene and its surrounding is highly conserved within the B. longum subsp. longum species. Strains of B. longum subsp. longum were selected to represent the entire span of the genetic phylogenetic tree (Table 2). All strains were cultured in Biolector (according to example 1) in a MRSc base without sugar, to which 1% glucose, 1% galactose or a mix of glucose & galactose (respectively 0.2 & 0.8%) was added. Cultures were grown for 18 h and harvested. Obtained pellets were further analyzed for total and serpin protein content (see example 1).
# transglutaminase 2 (TG2) = target: T1, transglutaminase 2 (TG2) (Homo sapiens, UniProt P21980); settings: in-vitro; inhibits deamidation of 33-mer gliadin peptide (McCarville et al. 2015); cited from earlier work
# T1 sequence (P21980 1-687): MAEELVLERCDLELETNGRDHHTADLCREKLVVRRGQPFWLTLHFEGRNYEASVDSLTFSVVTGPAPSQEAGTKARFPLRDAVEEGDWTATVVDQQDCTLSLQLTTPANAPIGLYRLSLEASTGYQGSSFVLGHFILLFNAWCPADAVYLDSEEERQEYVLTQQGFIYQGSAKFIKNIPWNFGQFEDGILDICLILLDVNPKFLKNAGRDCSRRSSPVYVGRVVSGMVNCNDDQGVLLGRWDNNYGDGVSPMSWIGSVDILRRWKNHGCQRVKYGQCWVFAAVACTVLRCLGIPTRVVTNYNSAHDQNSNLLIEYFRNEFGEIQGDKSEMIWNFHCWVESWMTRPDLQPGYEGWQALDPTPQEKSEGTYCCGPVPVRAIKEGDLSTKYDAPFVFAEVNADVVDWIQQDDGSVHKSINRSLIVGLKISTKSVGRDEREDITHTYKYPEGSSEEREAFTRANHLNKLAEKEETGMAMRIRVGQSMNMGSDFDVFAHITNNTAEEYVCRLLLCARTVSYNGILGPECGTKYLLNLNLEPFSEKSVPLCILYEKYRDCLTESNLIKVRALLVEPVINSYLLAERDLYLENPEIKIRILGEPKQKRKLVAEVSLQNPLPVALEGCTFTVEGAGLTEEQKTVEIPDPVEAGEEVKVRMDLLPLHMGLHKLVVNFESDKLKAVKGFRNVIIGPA
# [5] = tested on: various forms of elastases and proteinase; settings: Ying & Simon, 1993; cited from earlier work
# [6] = tested on: mouse model of gluten sensitivity; settings: elafin delivered by a recombinant Lactococcus lactis (Galipeau et al., 2014); cited from earlier work
molecule,measurement,setting,value
O=C[C@H](O)[C@@H](O)[C@@H](O)[C@H](O)CO [galactose],production of serpin in the presence of glucose,"B. longum NCC 2705; different glucose & galactose ratios, final concentration 1%, 18 h, only when glucose is depleted during fermentation (FIG. 2)",can induce production of serpin
same,serpin protein levels,"B. longum NCC 2705; grown for 8 h in MRSc base without sugar plus carbohydrate, compared to all other sugars tested (FIG. 1)",increase
same,serpin protein levels,"[1]; 1% galactose or 0.2% glucose & 0.8% galactose vs 1% glucose, 18 h (FIGS. 5-7)",increased in all B. longum subsp. longum strains; also recorded: significant serpin protein increase
same,serpin induction,B. breve ATCC 15700 (T); 1% galactose,"none of the B. breve ATCC 15700 (T), B. longum subsp infantis nor B. longum subsp suis strains were induced"
same,serpin induction,[2],neither induced by galactose
same,serpin induction,[3],neither induced by galactose
same,ability to grow on galactose as sole carbohydrate source,[4],Not all strains of B. longum subsp. longum were able to grow
"Elafin: human serine protease inhibitor (AQEPVKGPVSTKPGSCPIILIRCAMLNPPNRCLKDTDCPGIKKCCEGSCGMACFVPQ; ends and bridges not checked; cysteine pairing not given here; UniProt P19957 61-117, looked up)",inhibition of transglutaminase 2 (TG2),transglutaminase 2 (TG2),moderately inhibits
same,inhibitory capacity against elastases and proteinase,[5],potent inhibitory capacity
same,gluten-induced pathology and intestine inflammation,[6],reduce gluten-induced pathology and normalise intestine inflammation
B1,serpin levels,"[1]; 0.05 mg/ml papain on top of 1% glucose, 18 h (FIG. 7)",did not increase serpin levels
same,serpin levels,B. breve ATCC 15700 (T); 0.05 mg/ml papain on top of 1% glucose,did in the B. breve ATCC 15700 (T) strain
